Here are results for 19 molecules from US12084472B2 (Ardelyx, Inc., priority 2015, dated 2024).

A value given as a limit tells only on which side of the number the result lay.

The experiment has as its target T1, human TGR5 (Homo sapiens, UniProt Q8TDU6).
T1 construct: expressed in transfected cells; host or cells: HEK293
T1 sequence (Q8TDU6 1-330): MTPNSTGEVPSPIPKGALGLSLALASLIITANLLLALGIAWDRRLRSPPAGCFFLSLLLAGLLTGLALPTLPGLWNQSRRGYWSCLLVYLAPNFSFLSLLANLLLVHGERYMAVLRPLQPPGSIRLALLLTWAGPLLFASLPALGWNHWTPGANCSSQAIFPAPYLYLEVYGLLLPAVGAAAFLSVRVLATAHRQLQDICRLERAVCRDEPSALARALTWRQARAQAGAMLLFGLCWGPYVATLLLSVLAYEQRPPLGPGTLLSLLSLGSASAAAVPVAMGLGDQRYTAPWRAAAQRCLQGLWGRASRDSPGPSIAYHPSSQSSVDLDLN
Nature of the experiment: Cell-based TGR5 assay (cAMP generation, HTRF). The conditions noted are these: HEK293 cells stably transfected with human TGR5; cAMP by HTRF; 30 minutes at 37° C.; read-out: pEC50 Human TGR5 (converted). A digest of the protocol:
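First, compounds in 3-fold serial dilution were placed in HBSS with 10 mM HEPES pH 7.4 and 0.5 mM IBMX. Next, human TGR5-expressing HEK293 cells were added and incubated 30 min at 37° C. Finally, cAMP was detected by HTRF and pEC50 derived by logistic fitting.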
A general note: In TR-FRET formats the signal depends on donor and acceptor labels being close together.
In the case of `O=C(CCCCCNS(=O)(=O)c1ccc(Cl)c(COC2(c3cnccc3-c3ccccc3OC3CC3)CC2)c1)NC[C@H](O)[C@@H](O)[C@H](O)[C@H](O)CO` [Compound I-431, 6-[4-chloro-3-({1-[4-(2-cyclopropoxyphenyl)pyridin-3-yl]cyclopropoxy}methyl)benzenesulfonamido]-N-[(2S,3R,4R,5R)-2,3,4,5,6-pentahydroxyhexyl]hexanamide], the EC50 was less than 100 nM.
As for `O=C(CCCCCCNS(=O)(=O)c1ccc(Cl)c(COC2(c3cnccc3-c3ccccc3OC3CC3)CC2)c1)NC[C@H](O)[C@@H](O)[C@H](O)[C@H](O)CO` [Compound I-432, 7-[4-chloro-3-({1-[4-(2-cyclopropoxyphenyl)pyridin-3-yl]cyclopropoxy}methyl)benzenesulfonamido]-N-[(2S,3R,4R,5R)-2,3,4,5,6-pentahydroxyhexyl]heptanamide], the EC50 was less than 100 nM.
To `O=C(CCCCNS(=O)(=O)c1ccc(Cl)c(COC2(c3cnccc3-c3ccccc3OC3CC3)CC2)c1)NC[C@H](O)[C@@H](O)[C@H](O)[C@H](O)CO` [Compound I-433, 5-[4-chloro-3-({1-[4-(2-cyclopropoxyphenyl)pyridin-3-yl]cyclopropoxy}methyl)benzenesulfonamido]-N-[(2S,3R,4R,5R)-2,3,4,5,6-pentahydroxyhexyl]pentanamide] belongs less than 100 nM; to `CN(CCC(=O)NC[C@H](O)[C@@H](O)[C@H](O)[C@H](O)CO)S(=O)(=O)c1ccc(Cl)c(COC2(c3cnccc3-c3ccccc3OC3CC3)CC2)c1` [Compound I-434, 3-[N-methyl4-chloro-3-({1-[4-(2-cyclopropoxyphenyl)pyridin-3-yl]cyclopropoxy}methyl)benzenesulfonamido]-N-[(2S,3R,4R,5R)-2,3,4,5,6-pentahydroxyhexyl]propanamide], less than 100 nM.
The figure for `O=C(NC[C@H](O)[C@@H](O)[C@H](O)[C@H](O)CO)[C@H]1[C@@H]2CN(S(=O)(=O)c3ccc(Cl)c(COC4(c5cnccc5-c5ccccc5OC5CC5)CC4)c3)C[C@@H]21` [Compound I-435, (1R,5S,6S)-3-[4-chloro-3-({1-[4-(2-cyclopropoxyphenyl)pyridin-3-yl]cyclopropoxy}methyl)benzenesulfonyl]-N-[(2S,3R,4R,5R)-2,3,4,5,6-pentahydroxyhexyl]-3-azabicyclo[3.1.0]hexane-6-carboxamide] is less than 100 nM.
`O=C(NC[C@H](O)[C@@H](O)[C@H](O)[C@H](O)CO)[C@H]1CC[C@H](CNS(=O)(=O)c2ccc(Cl)c(COC3(c4cnccc4-c4ccccc4OC4CC4)CC3)c2)CC1` [Compound I-436, (1r,4r)-4-[4-chloro-3-({1-[4-(2-cyclopropoxyphenyl)pyridin-3-yl]cyclopropoxy}methyl)benzenesulfonamidomethyl]-N-[(2S,3R,4R,5R)-2,3,4,5,6-pentahydroxyhexyl]cyclohexane-1-carboxamide]: the EC50 was less than 100 nM.
For the molecule `O=C(NC[C@H](O)[C@@H](O)[C@H](O)[C@H](O)CO)C1CCN(S(=O)(=O)c2ccc(Cl)c(COC3(c4cnccc4-c4ccccc4OC4CC4)CC3)c2)CC1` [Compound I-437, 1-[4-chloro-3-({1-[4-(2-cyclopropoxyphenyl)pyridin-3-yl]cyclopropoxy}methyl)benzenesulfonyl]-N-[(2S,3R,4R,5R)-2,3,4,5,6-pentahydroxyhexyl]piperidine-4-carboxamide], the EC50 is less than 100 nM.
Regarding `O=C(CC1CN(S(=O)(=O)c2ccc(Cl)c(COC3(c4cnccc4-c4ccccc4OC4CC4)CC3)c2)C1)NC[C@H](O)[C@@H](O)[C@H](O)[C@H](O)CO` [Compound I-438, 2-{1-[4-chloro-3-({1-[4-(2-cyclopropoxyphenyl)pyridin-3-yl]cyclopropoxy}methyl)benzenesulfonyl]azetidin-3-yl}-N-[(2S,3R,4R,5R)-2,3,4,5,6-pentahydroxyhexyl]acetamide], the EC50 is less than 100 nM.
To `O=C(NC[C@H](O)[C@@H](O)[C@H](O)[C@H](O)CO)C1CCC(NS(=O)(=O)c2ccc(Cl)c(COC3(c4cnccc4-c4ccccc4OC4CC4)CC3)c2)C1` (stereo partly drawn) [Compound I-439, 3-[4-chloro-3-({1-[4-(2-cyclopropoxyphenyl)pyridin-3-yl]cyclopropoxy}methyl)benzenesulfonamido]-N-[(2S,3R,4R,5R)-2,3,4,5,6-pentahydroxyhexyl]cyclopentane-1-carboxamide] belongs less than 100 nM.
To `O=C(CN1CCN(S(=O)(=O)c2ccc(Cl)c(COC3(c4cnccc4-c4ccccc4OC4CC4)CC3)c2)CC1)NC[C@H](O)[C@@H](O)[C@H](O)[C@H](O)CO` [Compound I-440, 2-{4-[4-chloro-3-({1-[4-(2-cyclopropoxyphenyl)pyridin-3-yl]cyclopropoxy}methyl)benzenesulfonyl]piperazin-1-yl}-N-[(2S,3R,4R,5R)-2,3,4,5,6-pentahydroxyhexyl]acetamide] belongs 126 to 1000 nM; to `O=C(CC1CCN(S(=O)(=O)c2ccc(Cl)c(COC3(c4cnccc4-c4ccccc4OC4CC4)CC3)c2)CC1)NC[C@H](O)[C@@H](O)[C@H](O)[C@H](O)CO` [Compound I-441, 2-{1-[4-chloro-3-({1-[4-(2-cyclopropoxyphenyl)pyridin-3-yl]cyclopropoxy}methyl)benzenesulfonyl]piperidin-4-yl}-N-[(2S,3R,4R,5R)-2,3,4,5,6-pentahydroxyhexyl]acetamide], 126 to 1000 nM; to `O=C(NC[C@H](O)[C@@H](O)[C@H](O)[C@H](O)CO)[C@H]1CC[C@H](NS(=O)(=O)c2ccc(Cl)c(COC3(c4cnccc4-c4ccccc4OC4CC4)CC3)c2)CC1` [Compound I-442, (1r,4r)-4-[4-chloro-3-({1-[4-(2-cyclopropoxyphenyl)pyridin-3-yl]cyclopropoxy}methyl)benzenesulfonamido]-N-[(2S,3R,4R,5R)-2,3,4,5,6-pentahydroxyhexyl]cyclohexane-1-carboxamide], less than 100 nM.
Consider `O=C(CCN1CCN(S(=O)(=O)c2ccc(Cl)c(COC3(c4cnccc4-c4ccccc4OC4CC4)CC3)c2)CC1)NC[C@H](O)[C@@H](O)[C@H](O)[C@H](O)CO` [Compound I-443, 3-{4-[4-chloro-3-({1-[4-(2-cyclopropoxyphenyl)pyridin-3-yl]cyclopropoxy}methyl)benzenesulfonyl]piperazin-1-yl}-N-[(2S,3R,4R,5R)-2,3,4,5,6-pentahydroxyhexyl]propanamide], for which the EC50 is 126 to 1000 nM.
For `O=C(COC1CCN(S(=O)(=O)c2ccc(Cl)c(COC3(c4cnccc4-c4ccccc4OC4CC4)CC3)c2)CC1)NC[C@H](O)[C@@H](O)[C@H](O)[C@H](O)CO` [Compound I-444, 2-({1-[4-chloro-3-({1-[4-(2-cyclopropoxyphenyl)pyridin-3-yl]cyclopropoxy}methyl)benzenesulfonyl]piperidin-4-yl}oxy)-N-[(2S,3R,4R,5R)-2,3,4,5,6-pentahydroxyhexyl]acetamide], the EC50 was less than 100 nM.
To `O=C(NC[C@H](O)[C@@H](O)[C@H](O)[C@H](O)CO)C12CCC(NS(=O)(=O)c3ccc(Cl)c(COC4(c5cnccc5-c5ccccc5OC5CC5)CC4)c3)(CC1)CC2` [Compound I-445, 4-[4-chloro-3-({1-[4-(2-cyclopropoxyphenyl)pyridin-3-yl]cyclopropoxy}methyl)benzenesulfonamido]-N-[(2S,3R,4R,5R)-2,3,4,5,6-pentahydroxyhexyl]bicyclo[2.2.2]octane-1-carboxamide] belongs 126 to 1000 nM; to `O=C(/C=C/C1CN(S(=O)(=O)c2ccc(Cl)c(COC3(c4cnccc4-c4ccccc4OC4CC4)CC3)c2)C1)NC[C@H](O)[C@@H](O)[C@H](O)[C@H](O)CO` [Compound I-446, (2E)-3-{1-[4-chloro-3-({1-[4-(2-cyclopropoxyphenyl)pyridin-3-yl]cyclopropoxy}methyl)benzenesulfonyl]azetidin-3-yl}-N-[(2S,3R,4R,5R)-2,3,4,5,6-pentahydroxyhexyl]prop-2-enamide], less than 100 nM.
`CN(C[C@H](O)[C@@H](O)[C@H](O)[C@H](O)CO)C(=O)CC1CN(S(=O)(=O)c2ccc(Cl)c(COC3(c4cnccc4-c4ccccc4OC4CC4)CC3)c2)C1` [Compound I-447, 2-{1-[4-chloro-3-({1-[4-(2-cyclopropoxyphenyl)pyridin-3-yl]cyclopropoxy}methyl)benzenesulfonyl]azetidin-3-yl}-N-methyl-N-[(2S,3R,4R,5R)-2,3,4,5,6-pentahydroxyhexyl]acetamide]: the EC50 is less than 100 nM.
The figure for `O=C(CCC1CN(S(=O)(=O)c2ccc(Cl)c(COC3(c4cnccc4-c4ccccc4OC4CC4)CC3)c2)C1)NC[C@H](O)[C@@H](O)[C@H](O)[C@H](O)CO` [Compound I-448, 3-{1-[4-chloro-3-({1-[4-(2-cyclopropoxyphenyl)pyridin-3-yl]cyclopropoxy}methyl)benzenesulfonyl]azetidin-3-yl}-N-[(2S,3R,4R,5R)-2,3,4,5,6-pentahydroxyhexyl]propanamide] is less than 100 nM.
For `O=C(CCC1CCN(S(=O)(=O)c2ccc(Cl)c(COC3(c4cnccc4-c4ccccc4OC4CC4)CC3)c2)CC1)NC[C@H](O)[C@@H](O)[C@H](O)[C@H](O)CO` [Compound I-449, 3-{1-[4-chloro-3-({1-[4-(2-cyclopropoxyphenyl)pyridin-3-yl]cyclopropoxy}methyl)benzenesulfonyl]piperidin-4-yl}-N-[(2S,3R,4R,5R)-2,3,4,5,6-pentahydroxyhexyl]propanamide], the EC50 is less than 100 nM.
